Assay [1] concerns the target T1, Short transient receptor potential channel 4 (Mus musculus, UniProt Q9QUQ5).
T1 sequence (Q9QUQ5 whole entry): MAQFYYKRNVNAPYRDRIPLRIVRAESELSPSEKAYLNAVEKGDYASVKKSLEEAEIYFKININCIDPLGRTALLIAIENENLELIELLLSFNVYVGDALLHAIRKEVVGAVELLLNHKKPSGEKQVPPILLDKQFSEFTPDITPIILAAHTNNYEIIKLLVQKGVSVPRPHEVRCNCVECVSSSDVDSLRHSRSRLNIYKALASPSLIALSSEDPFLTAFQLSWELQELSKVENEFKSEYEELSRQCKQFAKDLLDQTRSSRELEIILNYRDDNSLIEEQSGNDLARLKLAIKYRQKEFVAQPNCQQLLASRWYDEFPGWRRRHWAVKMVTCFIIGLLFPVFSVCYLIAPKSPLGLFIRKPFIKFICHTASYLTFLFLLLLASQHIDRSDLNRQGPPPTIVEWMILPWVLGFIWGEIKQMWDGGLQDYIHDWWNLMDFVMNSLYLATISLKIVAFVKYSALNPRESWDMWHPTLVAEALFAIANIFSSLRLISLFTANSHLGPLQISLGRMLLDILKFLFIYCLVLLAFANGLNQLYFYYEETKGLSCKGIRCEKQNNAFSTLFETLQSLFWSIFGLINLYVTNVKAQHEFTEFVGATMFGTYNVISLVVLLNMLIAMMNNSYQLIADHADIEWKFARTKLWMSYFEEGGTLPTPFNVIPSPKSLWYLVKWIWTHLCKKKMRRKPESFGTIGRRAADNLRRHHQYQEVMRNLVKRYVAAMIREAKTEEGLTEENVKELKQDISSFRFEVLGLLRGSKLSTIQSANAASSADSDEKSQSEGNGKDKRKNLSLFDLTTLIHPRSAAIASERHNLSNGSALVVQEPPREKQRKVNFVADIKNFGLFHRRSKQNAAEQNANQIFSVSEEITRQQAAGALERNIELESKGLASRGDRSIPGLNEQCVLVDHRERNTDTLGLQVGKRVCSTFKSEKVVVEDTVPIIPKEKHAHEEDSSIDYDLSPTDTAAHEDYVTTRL
Kind of assay: mouse TRPC4 channel inhibitors, dose response, cell-based, HEK293 TRPC4/mu-opioid, Fluo-4 calcium (AID 434942).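 Further: potency of inhibitors blocking the TRPC4 calcium response.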 The assay is classed as functional.

The nature of a further assay: cells. In kind it is functional.
The nature of assay [2]: Vero E6 cell cytotoxicity, dose response, cytotoxicity control for non-replicating M. tuberculosis project, secondary assay (AID 492998). The note with it: Vero C1008. In kind it is functional, VeroE6.
Assay [3] can be described thus: THP-1 cell cytotoxicity, dose response, cytotoxicity control for non-replicating M. tuberculosis project (AID 489025). In kind it is functional.
Assay [4] in a line: HepG2 cell cytotoxicity, dose response, cytotoxicity control for non-replicating M. tuberculosis project (AID 489018). In kind it is functional. The note with it: Mycobacterium tuberculosis.
The target in the next assay is Cytochrome P450 2C19 (Homo sapiens, UniProt P33261). The assay is described as follows: Cytochrome panel assay with activity outcomes. Panel member name: p450-cyp2c19 Compounds with AC50 equal or less than 10 uM are considered active. The assay is classed as functional. The note with it: read-out: AC50.
The next assay has as its target Cytochrome P450 3A4 (Homo sapiens, UniProt P08684).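 Further: CYP3A4 tested as one member of a cytochrome P450 panel screen.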
Assay [5] has as its system Streptococcus sp. 'group A'. The assay is described as follows: growth inhibition of control SK(-) GAS strain, dose response, counter-screen for streptokinase expression inhibitor project, luminescence, kanamycin, BacTiterGlo, confirmation (AID 1900). The assay is classed as functional, organism-based.
The test system of another assay is Streptococcus. Kind of assay: Group A Streptococcus viability loss, dose response, counter-screen for streptokinase expression inhibitor project, luminescence, BacTiterGlo (AID 1915).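 Further: potency for reduction of bacterial viability or growth.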 In kind it is functional, organism-based. (In general: A counterscreen serves to expose hits that act by an unwanted route or on another target.)
A further assay concerns the target Cytochrome P450 2C9 (Homo sapiens, UniProt P11712).
A short description of assay [6]: Luminescence Cell-Based Dose Retest to Confirm Inhibitors of Cancer Stem Cells. [Related pubchem assays (depositor defined):AID2717, AID2721]. To be noted: Homo sapiens. The assay is classed as functional.
Assay [7] has as its target Heat shock protein HSP 90-alpha (Homo sapiens, UniProt P07900). The assay is classed as functional, organism-based.
The test system of a further assay is Vero. Kind of assay: cells. In kind it is functional. To be noted: Chlorocebus sabaeus.
The target of the next assay is Genome polyprotein (dengue virus type 2, UniProt P29990). The assay is described as follows: Dengue-2 NS5 methyltransferase inhibitors, primary screen, biochemical, confirmation dose response (AID 588689). The assay is classed as functional.
Assay [8] has as its target FAD-linked sulfhydryl oxidase ALR (Homo sapiens, UniProt P55789). The assay is described as follows: inhibitors of human ALR sulfhydryl oxidase, dose response, biochemical, H2O2 detection, luminescence, cherry-pick (AID 493248).
In another assay the target is T2, Streptokinase A (Streptococcus pyogenes serotype M1, UniProt P10520).
T2 sequence (P10520 whole entry): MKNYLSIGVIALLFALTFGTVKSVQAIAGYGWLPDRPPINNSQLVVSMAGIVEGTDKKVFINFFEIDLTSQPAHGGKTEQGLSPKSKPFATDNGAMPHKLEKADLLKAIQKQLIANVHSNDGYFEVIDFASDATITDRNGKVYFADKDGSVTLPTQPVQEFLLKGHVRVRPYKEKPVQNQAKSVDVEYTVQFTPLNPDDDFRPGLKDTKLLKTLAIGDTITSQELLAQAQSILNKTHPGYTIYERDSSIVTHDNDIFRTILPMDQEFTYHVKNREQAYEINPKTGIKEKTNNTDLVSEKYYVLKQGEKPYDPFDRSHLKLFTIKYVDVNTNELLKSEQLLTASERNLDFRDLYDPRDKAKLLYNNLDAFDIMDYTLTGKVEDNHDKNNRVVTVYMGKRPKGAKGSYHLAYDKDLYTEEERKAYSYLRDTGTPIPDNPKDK
The assay is described as follows: S. pyogenes streptokinase expression inhibitors, potency, dose response, plasminogen activation absorbance, OD405 (AID 1914).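 Further: secreted streptokinase activity via plasminogen activation per viability signal from cell pellet.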 The assay is classed as functional, Streptococcus pyogenes M1 GAS.

In assay [9] the target is T3, Fatty acid synthase (Homo sapiens, UniProt P49327). Kind of assay: FAS thioesterase domain inhibitors, dose response, biochemical, kinetic fluorescence intensity (AID 624326).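 Further: rate of fluorescence rise from hydrolysis of a fluorogenic O-methyl fluorescein ester substrate.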 The assay is classed as functional.
Assay [10] addresses T3, Fatty acid synthase. Kind of assay: FAS thioesterase domain inhibitors, dose response, biochemical, endpoint fluorescence intensity, uHTS hits (AID 624327).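 Further: fluorescence from hydrolysis of an O-methyl fluorescein acyl ester substrate by the enzyme.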 In kind it is functional.
Assay [11] deals with T4, Ubiquitin-conjugating enzyme E2 N (Homo sapiens, UniProt P61088).
T4 sequence (P61088 whole entry): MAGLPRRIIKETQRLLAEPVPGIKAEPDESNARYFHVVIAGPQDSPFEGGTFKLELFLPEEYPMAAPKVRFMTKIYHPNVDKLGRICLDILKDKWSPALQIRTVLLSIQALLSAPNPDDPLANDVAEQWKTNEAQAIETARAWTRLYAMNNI
The assay is classed as functional.

Assay [12] has as its target T5, High affinity choline transporter 1 (Homo sapiens, UniProt Q9GZV3).
T5 sequence (Q9GZV3 whole entry): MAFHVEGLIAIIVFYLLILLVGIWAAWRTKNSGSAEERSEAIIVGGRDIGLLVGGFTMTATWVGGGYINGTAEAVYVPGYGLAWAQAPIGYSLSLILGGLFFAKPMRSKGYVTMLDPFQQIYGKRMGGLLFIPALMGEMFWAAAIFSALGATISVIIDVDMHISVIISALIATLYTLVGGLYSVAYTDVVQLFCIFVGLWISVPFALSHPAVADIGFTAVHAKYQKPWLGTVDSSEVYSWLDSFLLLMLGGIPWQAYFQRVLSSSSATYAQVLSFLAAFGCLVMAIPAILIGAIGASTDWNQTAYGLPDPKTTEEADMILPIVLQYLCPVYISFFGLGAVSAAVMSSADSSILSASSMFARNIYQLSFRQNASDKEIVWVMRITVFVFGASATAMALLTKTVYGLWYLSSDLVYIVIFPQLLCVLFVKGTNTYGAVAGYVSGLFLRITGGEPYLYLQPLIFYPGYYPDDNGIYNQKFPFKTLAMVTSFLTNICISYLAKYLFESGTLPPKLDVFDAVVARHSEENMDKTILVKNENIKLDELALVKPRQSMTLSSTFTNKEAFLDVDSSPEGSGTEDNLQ
The assay is described as follows: CHT inhibitors, dose response, cell-based, 5-point CRC, membrane potential dye (AID 504840). The assay is classed as functional.

Assay [13] concerns the target T6, DNA repair protein RAD52 homolog (Homo sapiens, UniProt P43351).
T6 sequence (P43351 whole entry): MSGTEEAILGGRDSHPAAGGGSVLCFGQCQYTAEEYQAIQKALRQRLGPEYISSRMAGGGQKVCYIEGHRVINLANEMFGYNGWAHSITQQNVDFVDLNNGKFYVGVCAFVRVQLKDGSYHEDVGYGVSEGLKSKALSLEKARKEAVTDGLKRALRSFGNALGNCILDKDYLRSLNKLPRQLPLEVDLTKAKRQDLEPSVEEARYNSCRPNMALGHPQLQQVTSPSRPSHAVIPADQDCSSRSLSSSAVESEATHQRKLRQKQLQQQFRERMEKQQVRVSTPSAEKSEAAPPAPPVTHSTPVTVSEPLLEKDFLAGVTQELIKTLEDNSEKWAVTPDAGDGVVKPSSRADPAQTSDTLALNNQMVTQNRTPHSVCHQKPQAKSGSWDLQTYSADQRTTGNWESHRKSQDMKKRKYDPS
The assay is classed as functional, biochemical.

Active and inactive are the calls of the source. Bounds are passed on as bounds.

T3 sequence (P49327 whole entry, the tested form may be a part): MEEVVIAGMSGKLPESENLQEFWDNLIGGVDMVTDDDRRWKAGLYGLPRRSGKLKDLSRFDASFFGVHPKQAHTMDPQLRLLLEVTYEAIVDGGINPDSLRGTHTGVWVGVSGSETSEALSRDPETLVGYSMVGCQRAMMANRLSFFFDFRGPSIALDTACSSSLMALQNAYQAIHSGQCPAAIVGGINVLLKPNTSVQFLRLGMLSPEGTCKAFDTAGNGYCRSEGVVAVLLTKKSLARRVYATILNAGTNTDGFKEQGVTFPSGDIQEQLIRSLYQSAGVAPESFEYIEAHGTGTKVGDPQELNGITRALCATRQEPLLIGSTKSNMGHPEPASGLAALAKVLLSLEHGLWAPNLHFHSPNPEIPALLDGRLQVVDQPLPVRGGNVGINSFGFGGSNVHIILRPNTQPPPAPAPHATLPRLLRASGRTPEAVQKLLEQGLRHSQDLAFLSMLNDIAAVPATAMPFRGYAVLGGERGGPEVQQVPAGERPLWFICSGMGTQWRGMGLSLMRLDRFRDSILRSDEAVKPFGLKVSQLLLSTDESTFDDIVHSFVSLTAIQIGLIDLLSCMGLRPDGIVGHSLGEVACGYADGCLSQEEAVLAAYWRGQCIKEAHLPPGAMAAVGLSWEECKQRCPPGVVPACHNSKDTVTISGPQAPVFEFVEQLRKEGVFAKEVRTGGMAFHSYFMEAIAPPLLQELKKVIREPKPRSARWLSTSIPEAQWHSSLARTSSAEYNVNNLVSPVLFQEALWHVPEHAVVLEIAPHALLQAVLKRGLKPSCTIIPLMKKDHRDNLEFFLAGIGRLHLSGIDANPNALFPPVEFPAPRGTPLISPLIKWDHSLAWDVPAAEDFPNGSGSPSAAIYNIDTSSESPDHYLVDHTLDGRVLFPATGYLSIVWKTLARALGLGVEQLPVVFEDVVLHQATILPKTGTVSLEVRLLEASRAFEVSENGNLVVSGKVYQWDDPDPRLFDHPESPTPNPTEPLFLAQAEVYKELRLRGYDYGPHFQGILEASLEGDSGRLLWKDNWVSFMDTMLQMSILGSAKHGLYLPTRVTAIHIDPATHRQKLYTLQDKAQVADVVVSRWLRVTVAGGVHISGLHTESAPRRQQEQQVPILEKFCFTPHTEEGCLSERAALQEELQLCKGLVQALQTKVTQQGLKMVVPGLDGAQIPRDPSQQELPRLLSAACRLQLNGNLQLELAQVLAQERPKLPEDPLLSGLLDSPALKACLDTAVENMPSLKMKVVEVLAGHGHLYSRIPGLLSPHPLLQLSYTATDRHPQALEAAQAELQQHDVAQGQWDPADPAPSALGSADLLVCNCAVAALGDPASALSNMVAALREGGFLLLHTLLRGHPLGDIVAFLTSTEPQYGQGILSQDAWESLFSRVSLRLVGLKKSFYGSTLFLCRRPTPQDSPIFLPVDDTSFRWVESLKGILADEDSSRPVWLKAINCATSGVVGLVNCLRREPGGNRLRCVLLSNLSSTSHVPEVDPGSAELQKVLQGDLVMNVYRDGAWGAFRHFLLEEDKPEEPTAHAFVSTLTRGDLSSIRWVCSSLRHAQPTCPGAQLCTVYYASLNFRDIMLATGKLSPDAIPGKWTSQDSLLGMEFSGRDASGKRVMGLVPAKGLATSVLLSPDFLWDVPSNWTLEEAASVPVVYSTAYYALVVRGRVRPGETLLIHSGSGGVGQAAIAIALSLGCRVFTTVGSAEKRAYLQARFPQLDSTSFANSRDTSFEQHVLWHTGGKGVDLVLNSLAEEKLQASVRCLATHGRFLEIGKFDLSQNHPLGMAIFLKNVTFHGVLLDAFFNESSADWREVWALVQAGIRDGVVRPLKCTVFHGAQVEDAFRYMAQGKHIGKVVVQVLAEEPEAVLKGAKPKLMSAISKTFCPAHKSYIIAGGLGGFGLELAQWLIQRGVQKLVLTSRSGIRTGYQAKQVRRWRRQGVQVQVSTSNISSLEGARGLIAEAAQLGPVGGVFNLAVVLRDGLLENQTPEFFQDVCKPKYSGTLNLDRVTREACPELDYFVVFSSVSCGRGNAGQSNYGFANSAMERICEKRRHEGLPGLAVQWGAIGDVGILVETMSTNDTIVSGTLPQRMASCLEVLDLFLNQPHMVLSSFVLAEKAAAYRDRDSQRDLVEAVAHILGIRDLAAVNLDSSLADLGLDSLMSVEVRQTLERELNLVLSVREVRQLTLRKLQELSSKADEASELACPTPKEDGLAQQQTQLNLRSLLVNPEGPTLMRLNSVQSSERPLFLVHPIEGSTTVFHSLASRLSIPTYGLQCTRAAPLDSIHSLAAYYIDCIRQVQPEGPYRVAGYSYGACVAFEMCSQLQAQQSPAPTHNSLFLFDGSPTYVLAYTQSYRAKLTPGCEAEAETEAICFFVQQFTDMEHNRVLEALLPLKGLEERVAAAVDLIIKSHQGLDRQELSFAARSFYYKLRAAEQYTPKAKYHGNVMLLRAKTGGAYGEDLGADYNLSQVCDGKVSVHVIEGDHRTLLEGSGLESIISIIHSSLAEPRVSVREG
Sequence of Genome polyprotein (P29990 2492-3391 limits assumed): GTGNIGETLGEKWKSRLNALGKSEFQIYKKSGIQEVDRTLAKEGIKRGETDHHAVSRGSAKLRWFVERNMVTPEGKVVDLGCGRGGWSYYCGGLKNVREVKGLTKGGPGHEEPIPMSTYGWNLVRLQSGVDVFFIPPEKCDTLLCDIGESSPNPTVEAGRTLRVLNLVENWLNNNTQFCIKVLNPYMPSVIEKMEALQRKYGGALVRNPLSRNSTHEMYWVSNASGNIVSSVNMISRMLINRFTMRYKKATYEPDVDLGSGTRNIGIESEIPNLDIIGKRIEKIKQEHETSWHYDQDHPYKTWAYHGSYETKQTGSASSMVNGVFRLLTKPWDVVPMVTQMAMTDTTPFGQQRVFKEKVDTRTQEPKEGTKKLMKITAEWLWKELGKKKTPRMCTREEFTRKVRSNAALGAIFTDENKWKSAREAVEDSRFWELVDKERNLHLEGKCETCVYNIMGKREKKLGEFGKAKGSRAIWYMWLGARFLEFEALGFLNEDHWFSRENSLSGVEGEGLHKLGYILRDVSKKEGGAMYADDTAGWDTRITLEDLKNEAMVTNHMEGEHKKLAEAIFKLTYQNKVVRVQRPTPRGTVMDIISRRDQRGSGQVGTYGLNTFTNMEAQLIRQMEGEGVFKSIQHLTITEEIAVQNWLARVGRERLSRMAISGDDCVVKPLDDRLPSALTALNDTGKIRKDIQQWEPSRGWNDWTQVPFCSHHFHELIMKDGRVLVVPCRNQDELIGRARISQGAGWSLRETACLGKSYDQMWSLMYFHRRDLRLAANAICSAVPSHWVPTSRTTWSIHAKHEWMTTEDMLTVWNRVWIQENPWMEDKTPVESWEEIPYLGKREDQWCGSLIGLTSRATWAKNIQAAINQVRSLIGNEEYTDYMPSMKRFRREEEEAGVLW
Sequence of Cytochrome P450 2C9 (P11712 whole entry): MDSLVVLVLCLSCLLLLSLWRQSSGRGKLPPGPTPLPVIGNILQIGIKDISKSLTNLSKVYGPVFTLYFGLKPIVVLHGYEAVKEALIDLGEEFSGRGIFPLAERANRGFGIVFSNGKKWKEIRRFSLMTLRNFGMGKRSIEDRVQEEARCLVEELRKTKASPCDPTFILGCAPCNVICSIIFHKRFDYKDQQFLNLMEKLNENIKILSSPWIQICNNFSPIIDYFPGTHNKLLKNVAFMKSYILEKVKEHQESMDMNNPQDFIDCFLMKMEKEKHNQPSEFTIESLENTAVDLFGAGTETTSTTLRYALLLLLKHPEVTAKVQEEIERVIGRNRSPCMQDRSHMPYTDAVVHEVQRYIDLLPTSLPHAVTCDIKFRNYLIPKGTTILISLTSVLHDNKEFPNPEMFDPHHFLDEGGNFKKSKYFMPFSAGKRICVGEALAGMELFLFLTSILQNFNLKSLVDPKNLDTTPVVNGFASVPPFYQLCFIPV
Sequence of Cytochrome P450 2C19 (P33261 whole entry): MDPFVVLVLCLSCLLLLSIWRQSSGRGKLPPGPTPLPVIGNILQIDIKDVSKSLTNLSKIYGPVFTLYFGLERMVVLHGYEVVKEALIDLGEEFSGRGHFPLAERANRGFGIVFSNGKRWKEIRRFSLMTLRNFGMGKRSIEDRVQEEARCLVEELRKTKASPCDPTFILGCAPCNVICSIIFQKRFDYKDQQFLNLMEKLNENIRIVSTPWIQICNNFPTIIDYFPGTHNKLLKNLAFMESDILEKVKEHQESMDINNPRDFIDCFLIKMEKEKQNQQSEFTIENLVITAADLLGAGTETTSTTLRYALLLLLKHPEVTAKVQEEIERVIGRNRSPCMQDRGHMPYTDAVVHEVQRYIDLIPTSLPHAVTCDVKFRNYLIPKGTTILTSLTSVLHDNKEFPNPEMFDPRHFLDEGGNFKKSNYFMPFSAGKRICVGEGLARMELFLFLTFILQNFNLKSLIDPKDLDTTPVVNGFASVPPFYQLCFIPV
Sequence of Cytochrome P450 3A4 (P08684 whole entry): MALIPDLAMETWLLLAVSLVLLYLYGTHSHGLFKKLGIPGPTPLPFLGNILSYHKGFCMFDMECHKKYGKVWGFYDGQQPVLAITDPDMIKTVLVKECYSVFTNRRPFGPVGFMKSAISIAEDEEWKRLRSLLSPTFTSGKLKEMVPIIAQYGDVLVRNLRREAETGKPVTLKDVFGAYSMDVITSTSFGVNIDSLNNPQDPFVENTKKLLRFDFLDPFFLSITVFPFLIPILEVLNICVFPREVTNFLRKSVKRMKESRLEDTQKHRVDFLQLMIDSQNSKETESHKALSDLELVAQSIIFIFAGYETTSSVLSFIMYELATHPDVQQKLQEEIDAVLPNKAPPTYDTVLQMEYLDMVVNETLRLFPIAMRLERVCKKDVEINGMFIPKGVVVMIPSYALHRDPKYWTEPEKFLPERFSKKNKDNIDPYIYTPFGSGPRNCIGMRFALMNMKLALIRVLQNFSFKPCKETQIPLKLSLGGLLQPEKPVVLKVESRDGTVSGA
Sequence of FAD-linked sulfhydryl oxidase ALR (P55789 whole entry): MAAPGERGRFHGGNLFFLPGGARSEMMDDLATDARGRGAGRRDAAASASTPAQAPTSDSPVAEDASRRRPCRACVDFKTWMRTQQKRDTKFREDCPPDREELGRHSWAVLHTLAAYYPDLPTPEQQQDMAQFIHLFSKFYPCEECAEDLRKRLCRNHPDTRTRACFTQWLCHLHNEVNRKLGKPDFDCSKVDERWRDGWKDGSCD

Broadly, the EC50 is the concentration needed to bring the measured effect to its halfway point. A word on the IC50: it is the concentration that inhibits the measured activity by half. In the case of `CCOC(=O)C1(CCc2ccccc2)CCN(Cc2ccccn2)CC1`, the EC50 in assay [1] is 4.22 µM (active). Moreover, the IC50 in the assay “cells” is 3.96 µM (active).

For `CC(C)Sc1nc2sc3c(c2c2nnc(SCC(=O)NCc4ccco4)n12)CCCC3`, the EC50 in [1] is 3.76 µM (active).

Broadly, the CC50 is the concentration giving 50% cytotoxicity. Consider `COc1ccc(C(=O)Oc2c(CN3CCOCC3)cc(Cl)c3cccnc23)cc1OC`, for which the CC50 in assay [2] is 8.82 µM (active); in [3], 12.2 µM (active); in [4], 15 µM (active). In addition, the IC50 in “cells” is 34.6 µM (active).

The term AC50 denotes the concentration at which the activity in the assay is half-maximal. In the case of `Cn1ncc2c(Nc3cccc(Cl)c3)nc(Nc3cccc(Cl)c3)nc21`, the AC50 at Cytochrome P450 2C19 is 3.16 µM (inconclusive); at Cytochrome P450 3A4, 6.31 µM (inconclusive); at Cytochrome P450 2C9, 7.94 µM (inconclusive); in assay [6] it was 2.88 µM (active); in assay [7] it was 4.31 µM (active). Besides, the EC50 in assay [5] was 2.68 µM (active); in the assay on Streptococcus it was 2.92 µM (active).

As for `Cc1ccc(OCC(=O)NNC(=S)NC(=O)c2ccc(Br)o2)c(C)c1`, the EC50 was < 0.06 µM (active) in [5], 1.33 µM (active) with Streptococcus and 13.3 µM (active) in assay [1]. Besides, the half-maximal cytotoxic concentration (CC50) in the assay on Vero is > 25 µM (active).

For `COc1ccc(S(=O)(=O)NC2CC3CCC2C3)cc1Br` (stereo not drawn), the AC50 in assay [7] was 5.25 µM (active).

As to `COc1ccccc1N1C(=O)NC(=O)/C(=C/c2ccc3c(c2)Cc2ccccc2-3)C1=O`, the IC50 at Genome polyprotein is 59.4 µM (active).

On to `CN1C(=O)/C(=C/c2cccc([N+](=O)[O-])c2)C(=O)N1c1ccccc1`, for which, at Genome polyprotein, the concentration for half-maximal inhibition (IC50) was 26.3 µM (active). The AC50 in [8] is 0.533 µM (active).

Take `Oc1c2c(nc3c(-c4ccc(Cl)cc4)cnn13)CCC2`: the half-maximal cytotoxic concentration (CC50) was 10.7 µM (active) in assay [2], 5.23 µM (active) in assay [3] and 12.7 µM (active) in assay [4]. Further, the results for the EC50 (in assay [5]; in the assay with Streptococcus; at Streptokinase A) were 4.33 µM (active), 12.3 µM (active) and > 150 µM (not active), respectively. Further, in “cells”, the IC50 is 12.2 µM (active).

With `Cc1ccc(S(=O)(=O)c2cnc(-c3ccccc3)nc2N2CCN(C)CC2)cc1`, in assay [1], the EC50 was 6.68 µM (active).

As to `O=C1Nc2ccc(F)cc2C12Nc1ccccc1-c1nnc(SCc3ccccc3)nc1O2` (stereo not drawn), the IC50 on Genome polyprotein is 46.2 µM (active).

On to `O=C(COC(=O)CC1CC2CCC1C2)Nc1cc([N+](=O)[O-])ccc1F` (stereo not drawn), for which the IC50 on Fatty acid synthase [9] is 3.72 µM (active); on Fatty acid synthase [10] it was 4.15 µM (active).

Regarding `CCN1CCN(CCNC(=O)c2ccc3nc(-c4cccc(C)c4)c(-c4cccc(C)c4)nc3c2)CC1`, the IC50 in assay [11] was > 20 µM (inactive); in [12] it was 3.76 µM (active). The AC50 in assay [13] is 13.5 µM (active).

For the compound `CCc1nc2ccccc2n1Cc1ccccc1OC`, the EC50 in [1] is 10.6 µM (active).

As for `Cc1cccc(-c2cc3nc(C)c(C)c(NCCCn4ccnc4)n3n2)c1`, the CC50 in assay [2] is > 20 µM (active); in assay [3] it was 20.6 µM (active); in assay [4], 16.4 µM (active). Besides, the IC50 in “cells” is 9.68 µM (active).

`Cc1ccccc1[N+]1=C2CCCCN2C(O)(c2cccs2)C1` (stereo not drawn): in [1], the EC50 is 2.37 µM (active).

Consider `O=C(CC1C[C@H](C(=O)N2CCOCC2)[C@@]2(CCC3CCCC3)c3[nH]c4ccccc4c3CCN2C1=O)NCCC1=CCCCC1` (stereo partly drawn), for which the figures for the IC50 on Fatty acid synthase [9] and at Fatty acid synthase [10] were 35.1 µM (inactive) and 22.2 µM (inactive), respectively.

Consider `Cc1ccc(C(=O)CN(CCC(=O)O)S(=O)(=O)c2ccc([N+](=O)[O-])cc2)cc1`, for which the IC50 is 3.55 µM (active) at Fatty acid synthase [9] and 5.88 µM (active) on Fatty acid synthase [10].

`O=C(CCC(=O)Nc1cccc(Cl)c1)N/N=C/c1cc([N+](=O)[O-])ccc1O`: the results for the IC50 at Fatty acid synthase [9] and on Fatty acid synthase [10] were 5.71 µM (active) and 4.21 µM (active), respectively.
